The target in this experiment is T1, human B1R (Homo sapiens, UniProt P46663).
T1 construct: expressed in transfected cells; host or cells: CHO K1 cells (Chinese Hamster Ovary), stably transfected
T1 sequence (P46663 1-353): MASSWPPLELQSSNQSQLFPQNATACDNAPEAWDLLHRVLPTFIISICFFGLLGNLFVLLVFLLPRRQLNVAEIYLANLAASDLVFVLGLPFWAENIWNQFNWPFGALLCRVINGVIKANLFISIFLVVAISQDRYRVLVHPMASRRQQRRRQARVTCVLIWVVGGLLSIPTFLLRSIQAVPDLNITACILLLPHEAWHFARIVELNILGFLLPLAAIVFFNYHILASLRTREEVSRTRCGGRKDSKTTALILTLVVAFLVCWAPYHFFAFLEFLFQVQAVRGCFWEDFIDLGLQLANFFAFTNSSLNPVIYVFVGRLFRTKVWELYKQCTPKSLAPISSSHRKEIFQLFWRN
Briefly: Functional assay at bradykinin receptor 1 (B1R): Ca2+ fluorescence (Fluo-4) in FLIPR/Novostar, antagonist mode. The note with it: test substance 10 µM; CHO K1 cells stably transfected with human B1R gene (hB1R-Zellen); agonist Lys-Des-Arg9-Bradykinin at EC80; % inhibition relative to maximal achievable inhibition; read-out: % Inhibierung (human B1R) bei 10 µM. It counts as cell-based. In short, it runs like this:
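Antagonism read as suppression of the Ca2+ rise in Fluo-4-loaded, hB1R-transfected CHO K1 cells when Lys-Des-Arg9-bradykinin (EC80) follows a 6–20 min compound preincubation. Maximal fluorescence counts, measured on FLIPR or Novostar, yield % inhibition relative to maximum; IC50 values come from concentration series run in duplicate or triplicate.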

The structures appear in SMILES notation.

Consider `COc1cc(C)c(S(=O)(=O)Cc2cn(CC(=O)NC3CCN(C)CC3(C)C)nn2)c(C)c1` (centres unmarked) [CC-183, 2-[4-[[(4-Methoxy-2,6-dimethyl-phenyl)sulfonyl]-methyl]-1H-[1,2,3]triazol-1-yl]-N-(1,3,3-trimethyl-piperidin-4-yl)-acetamid], for which the inhibition at 10 µM is 100%.

As for `COc1cc(C)c(S(=O)(=O)Cc2c(C)nn(CC(=O)NC3CCN(C)CC3(C)C)c2C)c(C)c1` (centres unmarked) [CC-184, 2-[4-[[(4-Methoxy-2,6-dimethyl-phenyl)sulfonyl]-methyl]-3,5-dimethyl-1H-pyrazol-1-yl]-N-(1,3,3-trimethyl-piperidin-4-yl)-acetamid], the inhibition at 10 µM worked out at 100%.

As for `COc1cc(C)c(S(=O)(=O)Cc2c(C)nn(CC(=O)N(C)C3CCNCC3(C)C)c2C)c(C)c1` (centres unmarked) [CC-185, N-(3,3-Dimethyl-piperidin-4-yl)-2-[4-[[(4-methoxy-2,6-dimethyl-phenyl)sulfonyl]-methyl]-3,5-dimethyl-1 H-pyrazol-1-yl]-N-methyl-acetamid], the inhibition at 10 µM was found to be 72%.

Take `COc1cc(C)c(S(=O)(=O)Cc2cn(CC(=O)N(C3CCC(N(C)C)CC3)C3CC3)nn2)c(C)c1` (centres unmarked) [CC-186, N-Cyclopropyl-N-(4-dimethylamino-cyclohexyl)-2-[4-[[(4-methoxy-2,6-dimethyl-phenyl)sulfonyl]-methyl]-1H-[1,2,3]triazol-1-yl]-acetamid]: the inhibition at 10 µM was determined as 100%.

Turning to `COc1cc(C)c(S(=O)(=O)Cc2cc(C)n(CC(=O)NC3CCN(C)CC3(C)C)n2)c(C)c1` (centres unmarked) [CC-188, 2-[3-[[(4-Methoxy-2,6-dimethyl-phenyl)sulfonyl]-methyl]-5-methyl-1H-pyrazol-1-yl]-N-(1,3,3-trimethyl-piperidin-4-yl)-acetamid], the inhibition at 10 µM came to 57%.

For `COc1cc(C)c(S(=O)(=O)Cc2noc(C(=O)NC3CCN(c4ccncc4)CC3)n2)c(C)c1` [SC-01, 3-[[(4-Methoxy-2,6-dimethyl-phenyl)sulfonyl]-methyl]-N-(1-pyridin-4-yl-piperidin-4-yl)-[1,2,4]oxadiazol-5-carbonsäure amid], the inhibition at 10 µM turned out to be 99%.

Consider `COc1cc(C)c(S(=O)(=O)Cc2noc(C(=O)N3CC4(CCN(c5ccncc5)CC4)C3)n2)c(C)c1` [SC-02, [3-[[(4-Methoxy-2,6-dimethyl-phenyl)sulfonyl]-methyl]-[1,2,4]oxadiazol-5-yl]-(7-pyridin-4-yl-2,7-diazaspiro[3.5]nonan-2-yl)-methanon], for which the inhibition at 10 µM was found to be 100%.

As to `COc1cc(C)c(S(=O)(=O)Cc2noc(C(=O)N3CCC(Oc4ccncc4)C3)n2)c(C)c1` (centres unmarked) [SC-03, [3-[[(4-Methoxy-2,6-dimethyl-phenyl)sulfonyl]-methyl]-[1,2,4]oxadiazol-5-yl]-(3-pyridin-4-yloxy-pyrrolidin-1-yl)-methanon], the inhibition at 10 µM stood at 98%.

In the case of `COc1cc(C)c(S(=O)(=O)Cc2noc(C(=O)N3CCC4(CCN(c5ccncc5)CC4)C3)n2)c(C)c1` [SC-04, [3-[[(4-Methoxy-2,6-dimethyl-phenyl)sulfonyl]-methyl]-[1,2,4]oxadiazol-5-yl]-(8-pyridin-4-yl-3,8-diazaspiro[4.5]decan-3-yl)-methanon], the inhibition at 10 µM is 100%.

Consider `COc1cc(C)c(S(=O)(=O)Cc2noc(C(=O)N3CCC4(CCN(c5ccncc5)C4)C3)n2)c(C)c1` (centres unmarked) [SC-05, [3-[[(4-Methoxy-2,6-dimethyl-phenyl)sulfonyl]-methyl]-[1,2,4]oxadiazol-5-yl]-(8-pyridin-4-yl-3,8-diazaspiro[4.4]nonan-3-yl)-methanon], for which the inhibition at 10 µM worked out at 100%.

Turning to `COc1cc(C)c(S(=O)(=O)Cc2noc(C(=O)NC3CCN(c4ccc(C(F)(F)F)cn4)C3)n2)c(C)c1` (centres unmarked) [SC-06, 3-[[(4-Methoxy-2,6-dimethyl-phenyl)sulfonyl]-methyl]-N-[1-[5-(trifluormethyl)-pyridin-2-yl]-pyrrolidin-3-yl]-[1,2,4]oxadiazol-5-carbonsäure amid], the inhibition at 10 µM turned out to be 94%.

Take `COc1cc(C)c(S(=O)(=O)Cc2noc(C(=O)N3CCC(CN4CCN(C)CC4)C3)n2)c(C)c1` (centres unmarked) [SC-07, [3-[[(4-Methoxy-2,6-dimethyl-phenyl)sulfonyl]-methyl]-[1,2,4]oxadiazol-5-yl]-[3-[(4-methyl-piperazin-1-yl)-methyl]-pyrrolidin-1-yl]-methanon]: the inhibition at 10 µM stood at 100%.

Consider `COc1cc(C)c(S(=O)(=O)Cc2noc(C(=O)N3CCC(Cc4ccncc4)CC3)n2)c(C)c1` [SC-08, [3-[[(4-Methoxy-2,6-dimethyl-phenyl)sulfonyl]-methyl]-[1,2,4]oxadiazol-5-yl]-[4-(pyridin-4-yl-methyl)-piperidin-1-yl]-methanon], for which the inhibition at 10 µM came to 99%.

Turning to `COc1cc(C)c(S(=O)(=O)Cc2noc(C(=O)N3CCC4(CCC(Oc5ccncc5)CC4)CC3)n2)c(C)c1` [SC-09, [3-[[(4-Methoxy-2,6-dimethyl-phenyl)sulfonyl]-methyl]-[1,2,4]oxadiazol-5-yl]-(9-pyridin-4-yloxy-3-azaspiro[5.5]undecan-3-yl)-methanon], the inhibition at 10 µM was 99%.

Consider `COc1cc(C)c(S(=O)(=O)Cc2noc(C(=O)N3CCC4(CC3)CCN(c3ccncc3)CC4)n2)c(C)c1` [SC-10, [3-[[(4-Methoxy-2,6-dimethyl-phenyl)sulfonyl]-methyl]-[1,2,4]oxadiazol-5-yl]-(9-pyridin-4-yl-3,9-diazaspiro[5.5]undecan-3-yl)-methanon], for which the inhibition at 10 µM amounted to 100%.

For the compound `COc1cc(C)c(S(=O)(=O)Cc2noc(CC(=O)N3CCC4(CC3)CCN(c3ccncc3)CC4)n2)c(C)c1` [SC-11, 2-[3-[[(4-Methoxy-2,6-dimethyl-phenyl)sulfonyl]-methyl]-[1,2,4]oxadiazol-5-yl]-1-(9-pyridin-4-yl-3,9-diazaspiro[5.5]undecan-3-yl)-ethanon], the inhibition at 10 µM was found to be 99%.

In the case of `COc1cc(C)c(S(=O)(=O)Cc2noc(C(=O)NC3CCN(c4ccncc4)CC3(C)C)n2)c(C)c1` (centres unmarked) [SC-12, N-(3,3-Dimethyl-1-pyridin-4-yl-piperidin-4-yl)-3-[[(4-methoxy-2,6-dimethyl-phenyl)sulfonyl]-methyl]-[1,2,4]oxadiazol-5-carbonsäure amid], the inhibition at 10 µM was 100%.

As to `COc1cc(C)c(S(=O)(=O)Cc2noc(CC(=O)NC3CCC(N4CCN(C)CC4)CC3(C)C)n2)c(C)c1` (centres unmarked) [SC-13, N-[2,2-Dimethyl-4-(4-methyl-piperazin-1-yl)-cyclohexyl]-2-[3-[[(4-methoxy-2,6-dimethyl-phenyl)sulfonyl]-methyl]-[1,2,4]oxadiazol-5-yl]-acetamid], the inhibition at 10 µM is 100%.

Consider `COc1cc(C)c(S(=O)(=O)Cc2noc(CC(=O)NC3CCN(c4ccncc4)CC3(C)C)n2)c(C)c1` (centres unmarked) [SC-14, N-(3,3-Dimethyl-1-pyridin-4-yl-piperidin-4-yl)-2-[3-[[(4-methoxy-2,6-dimethyl-phenyl)sulfonyl]-methyl]-[1,2,4]oxadiazol-5-yl]-acetamid], for which the inhibition at 10 µM came to 100%.

With `COc1cc(C)c(S(=O)(=O)Cc2noc(C(=O)NC3CCC(N4CCN(C)CC4)CC3(C)C)n2)c(C)c1` (centres unmarked) [SC-16, N-[2,2-Dimethyl-4-(4-methyl-piperazin-1-yl)-cyclohexyl]-3-[[(4-methoxy-2,6-dimethyl-phenyl)-sulfonyl]-methyl]-[1,2,4]oxadiazol-5-carbonsäure amid], the inhibition at 10 µM was 99%.

With `COc1cc(C)c(S(=O)(=O)Cc2noc(C(=O)NC3CCC(c4ccncc4)CC3)n2)c(C)c1` (centres unmarked) [SC-18, 3-[[(4-Methoxy-2,6-dimethyl-phenyl)sulfonyl]-methyl]-N-(4-pyridin-4-yl-cyclohexyl)-[1,2,4]oxadiazol-5-carbonsäure amid], the inhibition at 10 µM was 97%.

In the case of `COc1cc(C)c(S(=O)(=O)Cc2noc(C(=O)NC3CCC(Cc4ccncc4)CC3)n2)c(C)c1` (centres unmarked) [SC-19, 3-[[(4-Methoxy-2,6-dimethyl-phenyl)sulfonyl]-methyl]-N-[4-(pyridin-4-yl-methyl)-cyclohexyl]-[1,2,4]oxadiazol-5-carbonsäure amid], the inhibition at 10 µM was found to be 99%.

For the compound `COc1cc(C)c(S(=O)(=O)Cc2noc(CC(=O)N(C)C3CCN(C4CCC(C)CC4)CC3)n2)c(C)c1` (centres unmarked) [SC-20, 2-[3-[[(4-Methoxy-2,6-dimethyl-phenyl)sulfonyl]-methyl]-[1,2,4]oxadiazol-5-yl]-N-methyl-N-[1-(4-methyl-cyclohexyl)-piperidin-4-yl]-acetamid], the inhibition at 10 µM was found to be 100%.

`COc1cc(C)c(S(=O)(=O)Cc2noc(CC(=O)N(C)C3CCN(C4CCOCC4)CC3)n2)c(C)c1` [SC-21, 2-[3-[[(4-Methoxy-2,6-dimethyl-phenyl)sulfonyl]-methyl]-[1,2,4]oxadiazol-5-yl]-N-methyl-N-(1-tetrahydro-pyran-4-yl-piperidin-4-yl)-acetamid]: the inhibition at 10 µM was determined as 100%.

For the compound `COc1cc(C)c(S(=O)(=O)Cc2noc(CC(=O)N(C3CC3)C3CCN(c4ccncc4)CC3)n2)c(C)c1` [SC-22, N-Cyclopropyl-2-[3-[[(4-methoxy-2,6-dimethyl-phenyl)sulfonyl]-methyl]-[1,2,4]oxadiazol-5-yl]-N-(1-pyridin-4-yl-piperidin-4-yl)-acetamid], the inhibition at 10 µM turned out to be 100%.

For `COc1cc(C)c(S(=O)(=O)Cc2noc(CC(=O)N(C)C3CCN(C(=O)c4ccncc4)CC3)n2)c(C)c1` [SC-27, 2-[3-[[(4-Methoxy-2,6-dimethyl-phenyl)sulfonyl]-methyl]-[1,2,4]oxadiazol-5-yl]-N-methyl-N-[1-(pyridin-4-carbonyl)-piperidin-4-yl]-acetamid], the inhibition at 10 µM was found to be 98%.

The values above are taken from patent publication EP2857388A1, “Azoles containing sulfone” (Grünenthal GmbH, priority 2013, dated 2015).
